According to patent publication US20110086914A1, “Methods for Treating Traumatic Brain Injury” (priority 2009, published 2011):

Columns and labels:
[1] = system: diffuse axonal injury in rats (impact acceleration injury); experiment: Impact acceleration injury model in rats: APP / active caspase-3 positive axons by immunohistochemistry; format: in vivo, Sprague-Dawley rats; details: for APP positive axons: 30 days post injury, p<0.05 versus 148 in unsupplemented animals (sham 6)
Description: (§1) Method. The impact acceleration injury model in rats described in Marmarou et al., J Neurosurg. 80:291-300 (1994), incorporated herein by reference, was used for the study. Four groups of ten (n=40) of adult male Sprague-Dawley rats were subjected to an impact acceleration injury resulting in reproducible severe traumatic brain injury. Rats weighing between 350 and 400 g received induction anesthesia and subsequently maintained on inhaled anesthetic using a modified medical anesthesia machine. The animals were shaved and prepared in sterile fashion for surgery, followed by subcutaneous injection of local anesthetic into the planned incision site. A 3 cm midline incision in the scalp was made, periosteal membranes separated, exposing bregma and lambda. A metal disk 10 mm in diameter and 3 mm thick was attached to the skull with cyanoacrylate and centered between bregma and lambda. The animal was placed prone on a foam bed with the metal disk directly under a plexiglas tube. A 450 g brass weight was dropped through the tube from a height of 2 meters striking the disk. The animal was then ventilated on 100% O2 while the skull inspected and the incision repaired. When the animal recovered spontaneous respirations, anesthesia was discontinued and the animal returned to its cage for postoperative observation (Marmarou et al., supra). All procedures involving live animals were approved by the Institutional Animal Care and Use Committee of West Virginia University, and were performed according to the principles of the Guide for the Care and Use of Laboratory Animals, published by the Institute of Laboratory Resources, National Research Council (NIH publication 85-23-2985).
(§2) DHA supplementation and serum level monitoring. The four groups received dietary supplementation with DHA (Martek, Columbia, Md.). Two of the four groups received dietary supplementation DHA daily in the following amounts: Group 1, 10 mg/kg/day; Group 2, 40 mg/kg/day. Groups 3 served as an unsupplemented control, and Group 4 underwent sham injury and received no supplementation. Each group received rat chow ad lib and were housed in a small animal vivarium under veterinary staff supervision. Fatty acid blood testing was performed prior to the injury and at the end of the 30 days of DHA supplementation by analyzing the isolated serum phospholipids (including DHA, EPA and Arachidonic acid) from 50 microliter blood samples using a previously described method (Holub and Skeaff, Methods Enzymol. 141:234-44 (1987); Nutrasource Diagnostics, University of Guelph, Ontario, Canada).
Tissue Preparation and Immunohistochemical Labeling. Following 30 day post-injury, surviving animals were euthanized with a lethal dose injection of 0.5 ml Ketamine and 0.5 ml Xylazine. […]

[2] = Tolerability of daily oral supplementation in the impact acceleration model; format: in vivo; details: 10 or 40 mg/kg/day
Description: as §1, with “All procedures involving live animals were approved by the Institutional Animal Care and Use Committee of West Virginia University, and were performed according to the principles of the Guide for the Care and Use of Laboratory Animals, published by the Institute of Laboratory Resources, National Research Council (NIH publication 85-23-2985).” left out

[3] = Serum phospholipid fatty acid levels after DHA supplementation following brain trauma; format: in vivo, Sprague-Dawley rats; details: for increased levels of serum DHA over initial levels: dietary, serum phospholipids
Method: as §2

CC/C=C\C/C=C\C/C=C\C/C=C\C/C=C\C/C=C\CCC(=O)O [DHA, (all-Z)-4,7,10,13,16,19-docosahexaenoic acid]
APP positive axons ([1]; 10 mg/kg/day DHA, corticospinal tract and medial lemnisci): 26 axons per mm^2
APP positive axons ([1]; 40 mg/kg/day DHA, corticospinal tract and medial lemnisci): 20 axons per mm^2
APP labeling of axons, qualitative ([1]; 10 or 40 mg/kg/day DHA, corticospinal tract and medial lemnisci): only rare APP positive axons, similar to sham injured animals
active caspase-3 positive axons ([1]; 10 or 40 mg/kg/day oral, 30 days following injury, data not shown): significant decrease
observed untoward effects of daily oral supplementation [2]: without any observed untoward effects
decrease in AA:EPA ratio, a marker of inflammation ([3]; 10 mg/kg/day DHA, 30 days after brain trauma, serum): 72%
increased levels of serum DHA over initial levels ([3]; 10 mg/kg/day DHA, 30 days after brain trauma): 123%
increased levels of serum DHA over initial levels ([3]; 40 mg/kg/day DHA, 30 days after brain trauma): 176%
total EPA and DHA in serum phospholipids compared to the sham animals ([3]; end of supplementation period, 10 and 40 mg/kg/day): dose-response effect in the increase
serum arachidonic acid levels ([3]; supplemented animals, end of supplementation period): non-significant increase
